In the supplement of paper PMC10307832:

How the values were obtained:
Assay in all cases: relative viability (nuclei count vs DMSO), 5 days (fraction); higher = more cells survive
AT-7519 + Lapatinib = compound: O=C(NC1CCNCC1)c1n[nH]cc1NC(=O)c1c(Cl)cccc1Cl [AT-7519] + CS(=O)(=O)CCNCc1ccc(-c2ccc3ncnc(Nc4ccc(OCc5cccc(F)c5)c(Cl)c4)c3c2)o1 [Lapatinib] (partner 2 µM)
Summary of the method: (§1)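 Medians of duplicate plates are given as relative viability. That measure is the nuclei count in treated wells divided by the count in vehicle wells. Counts were taken on 4× images of lung cancer cell lines in 1536-well plates, 5 days after pin-tool dosing the day after seeding with one drug alone or a fixed anchor-drug dose plus five library-drug doses (not always all listed) in √10 steps.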

[1] = compound: C1=CC2=C(C=C(C(=C2N=C1)O)N=NC3=CC4=C(C=C3)C=C(C=C4)S(=O)(=O)O)S(=O)(=O)O + CS(=O)(=O)N1CCN(Cc2cc3nc(-c4cccc5[nH]ncc45)nc(N4CCOCC4)c3s2)CC1 [Pictilisib] (partner 1 µM)
Summary of the method: as §1

[2] = compound: C1=CC2=C(C=C(C(=C2N=C1)O)N=NC3=CC4=C(C=C3)C=C(C=C4)S(=O)(=O)O)S(=O)(=O)O + CS(=O)(=O)CCNCc1ccc(-c2ccc3ncnc(Nc4ccc(OCc5cccc(F)c5)c(Cl)c4)c3c2)o1 [Lapatinib] (partner 2 µM)
Summary of the method: as §1

AT-7519 + Alpelisib = compound: O=C(NC1CCNCC1)c1n[nH]cc1NC(=O)c1c(Cl)cccc1Cl [AT-7519] + Cc1nc(NC(=O)N2CCC[C@H]2C(N)=O)sc1-c1ccnc(C(C)(C)C(F)(F)F)c1 [Alpelisib] (partner 2 µM)
Summary of the method: as §1

Cell Line	relative viability (AT-7519 + Lapatinib; first compound 0.01 µM)	relative viability (AT-7519 + Lapatinib; first compound 0.03162 µM)	relative viability (AT-7519 + Lapatinib; first compound 0.3162 µM)	relative viability (AT-7519 + Lapatinib; first compound 1 µM)	relative viability ([1]; first compound 0.08 µM)	relative viability ([1]; first compound 0.253 µM)	relative viability ([1]; first compound 0.8 µM)	relative viability ([1]; first compound 2.53 µM)	relative viability ([1]; first compound 8 µM)	relative viability ([2]; first compound 0.08 µM)	relative viability ([2]; first compound 0.253 µM)	relative viability ([2]; first compound 0.8 µM)	relative viability ([2]; first compound 2.53 µM)	relative viability ([2]; first compound 8 µM)	relative viability (AT-7519 + Alpelisib; first compound 0.01 µM)	relative viability (AT-7519 + Alpelisib; first compound 0.03162 µM)	relative viability (AT-7519 + Alpelisib; first compound 0.3162 µM)	relative viability (AT-7519 + Alpelisib; first compound 1 µM)
NCI-H1734	0.893	1.03	0.928	0.427	0.565	0.434	0.426	0.492	0.455	1.13	1.03	1.05	0.911	1.09	0.645	0.655	0.613	0.434
LXF-289	0.929	0.902	0.953	0.912	0.874	0.684	0.73	0.793	0.8	0.934	0.889	0.897	0.955	0.903	1.03	1.07	1.08	0.921
H3255	0.282	0.232	0.294	0.212	0.482	0.462	0.4	0.49	0.439	0.283	0.236	0.255	0.246	0.237	0.712	0.678	0.833	0.519
201T	1.06	1.03	1.07	1.06	0.625	0.696	0.649	0.695	0.72	0.975	1.04	1.01	0.997	1.02	0.972	1.05	1.02	1.09
NCI-H2126	0.804	0.752	0.683	0.857	0.505	0.518	0.506	0.522	0.523	0.808	0.723	0.723	0.777	0.759	0.766	0.798	0.749	0.695
